Source: the kinase profiling compilation of Christmann-Franck et al. (2016)
pKd: −log10 of the molar value.

Experiments:
Assay in all cases: KINOMEscan competition binding
MAP3K12 (human) = MAP3K12 (human) (UniProt Q12852); details: compound 10.0 µM
NEK9 (human) = NEK9 (human) (UniProt Q8TD19); details: compound 10.0 µM
EPHB3 (human) = EPHB3 (human) (UniProt P54753); details: compound 10.0 µM
PRKCH (human) = PRKCH (human) (UniProt P24723); details: compound 10.0 µM
[1] = test system: EGFR (human), P00533 [L861Q]; details: compound 10.0 µM
CDK5 (human) = CDK5 (human) (UniProt Q00535); details: compound 10.0 µM
BMPR1B (human) = BMPR1B (human) (UniProt O00238); details: compound 10.0 µM
PRKD1 (human) = PRKD1 (human) (UniProt Q15139); details: compound 10.0 µM
LATS1 (human) = LATS1 (human) (UniProt O95835); details: compound 10.0 µM
Sequence of LATS1 (human) (O95835 whole entry, looked up): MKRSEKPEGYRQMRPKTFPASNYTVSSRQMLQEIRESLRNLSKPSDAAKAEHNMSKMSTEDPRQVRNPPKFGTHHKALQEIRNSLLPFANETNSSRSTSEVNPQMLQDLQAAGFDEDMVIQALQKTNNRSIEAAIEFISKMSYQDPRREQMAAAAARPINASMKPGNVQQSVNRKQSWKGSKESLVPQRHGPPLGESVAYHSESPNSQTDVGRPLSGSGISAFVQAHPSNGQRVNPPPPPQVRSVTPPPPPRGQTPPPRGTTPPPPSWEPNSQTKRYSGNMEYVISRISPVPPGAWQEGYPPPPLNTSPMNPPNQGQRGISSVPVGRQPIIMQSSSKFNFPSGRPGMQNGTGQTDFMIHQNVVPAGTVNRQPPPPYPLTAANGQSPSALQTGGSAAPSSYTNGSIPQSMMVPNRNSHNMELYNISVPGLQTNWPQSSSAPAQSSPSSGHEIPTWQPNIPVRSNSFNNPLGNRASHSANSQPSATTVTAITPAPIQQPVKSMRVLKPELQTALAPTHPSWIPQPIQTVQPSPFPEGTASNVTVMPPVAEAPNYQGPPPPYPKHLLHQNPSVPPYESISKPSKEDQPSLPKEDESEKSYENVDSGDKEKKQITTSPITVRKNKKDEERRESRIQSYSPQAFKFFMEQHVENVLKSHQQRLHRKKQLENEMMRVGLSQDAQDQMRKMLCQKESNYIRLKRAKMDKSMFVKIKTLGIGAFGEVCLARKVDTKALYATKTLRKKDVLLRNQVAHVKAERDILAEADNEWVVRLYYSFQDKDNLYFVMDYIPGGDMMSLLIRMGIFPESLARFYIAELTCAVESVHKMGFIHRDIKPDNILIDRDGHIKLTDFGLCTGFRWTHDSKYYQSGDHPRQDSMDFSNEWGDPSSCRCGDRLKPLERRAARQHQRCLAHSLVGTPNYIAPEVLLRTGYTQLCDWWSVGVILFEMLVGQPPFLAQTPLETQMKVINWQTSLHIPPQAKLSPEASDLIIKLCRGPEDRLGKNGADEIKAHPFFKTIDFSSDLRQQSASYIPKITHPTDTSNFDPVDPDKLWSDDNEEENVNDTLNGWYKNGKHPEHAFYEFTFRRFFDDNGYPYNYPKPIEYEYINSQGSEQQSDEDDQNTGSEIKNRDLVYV

STK17A (human) = STK17A (human) (UniProt Q9UEE5); details: compound 10.0 µM
[2] = test system: EGFR (human), P00533 [T790M/L858R]; details: compound 10.0 µM
MARK2 (human) = MARK2 (human) (UniProt Q7KZI7); details: compound 10.0 µM
PAK1 (human) = PAK1 (human) (UniProt Q13153); details: compound 10.0 µM
PRKD2 (human) = PRKD2 (human) (UniProt Q9BZL6); details: compound 10.0 µM
MELK (human) = MELK (human) (UniProt Q14680); details: compound 10.0 µM
TNIK (human) = TNIK (human) (UniProt Q9UKE5); details: compound 10.0 µM
SBK1 (human) = SBK1 (human) (UniProt Q52WX2); details: compound 10.0 µM
MAPK10 (human) = MAPK10 (human) (UniProt P53779)
Sequence of MAPK10 (human) (P53779 whole entry, looked up): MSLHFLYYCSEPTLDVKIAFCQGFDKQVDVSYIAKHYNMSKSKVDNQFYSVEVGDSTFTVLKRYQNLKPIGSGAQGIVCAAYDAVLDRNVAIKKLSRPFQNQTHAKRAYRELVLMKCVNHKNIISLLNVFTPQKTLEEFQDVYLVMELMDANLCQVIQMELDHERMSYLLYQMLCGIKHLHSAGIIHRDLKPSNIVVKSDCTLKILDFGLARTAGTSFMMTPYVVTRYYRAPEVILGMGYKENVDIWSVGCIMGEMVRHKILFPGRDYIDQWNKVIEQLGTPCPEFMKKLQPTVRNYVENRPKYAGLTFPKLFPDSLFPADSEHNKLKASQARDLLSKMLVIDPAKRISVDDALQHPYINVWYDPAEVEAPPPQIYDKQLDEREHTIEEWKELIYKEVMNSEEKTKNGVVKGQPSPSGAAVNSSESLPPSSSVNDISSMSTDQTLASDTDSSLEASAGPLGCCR

NEK1 (human) = NEK1 (human) (UniProt Q96PY6); details: compound 10.0 µM
PRKACA (human) = PRKACA (human) (UniProt P17612); details: compound 10.0 µM
CDK17 (human) = CDK17 (human) (UniProt Q00537); details: compound 10.0 µM
STK3 (human) = STK3 (human) (UniProt Q13188); details: compound 10.0 µM
Sequence of STK3 (human) (Q13188 whole entry, looked up): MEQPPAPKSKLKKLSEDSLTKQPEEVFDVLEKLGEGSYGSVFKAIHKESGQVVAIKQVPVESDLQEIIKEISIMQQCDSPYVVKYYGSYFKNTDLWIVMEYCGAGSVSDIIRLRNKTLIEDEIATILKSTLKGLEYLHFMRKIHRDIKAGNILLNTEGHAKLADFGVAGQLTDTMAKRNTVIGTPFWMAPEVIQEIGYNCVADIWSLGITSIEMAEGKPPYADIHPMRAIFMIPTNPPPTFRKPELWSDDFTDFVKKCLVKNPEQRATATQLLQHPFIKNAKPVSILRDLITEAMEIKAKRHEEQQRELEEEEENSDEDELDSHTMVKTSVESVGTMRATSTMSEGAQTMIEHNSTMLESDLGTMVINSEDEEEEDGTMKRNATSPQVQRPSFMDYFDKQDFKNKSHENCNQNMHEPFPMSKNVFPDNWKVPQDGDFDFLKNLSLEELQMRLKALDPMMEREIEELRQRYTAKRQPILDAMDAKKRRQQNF

[3] = test system: PIK3CA (human), P42336 [E542K]; details: compound 10.0 µM
CSNK1G3 (human) = CSNK1G3 (human) (UniProt Q9Y6M4); details: compound 10.0 µM
ACVR2B (human) = ACVR2B (human) (UniProt Q13705); details: compound 10.0 µM
TLK2 (human) = TLK2 (human) (UniProt Q86UE8); details: compound 10.0 µM
PIM1 (human) = PIM1 (human) (UniProt P11309); details: compound 10.0 µM
Sequence of PIM1 (human) (P11309 whole entry, looked up): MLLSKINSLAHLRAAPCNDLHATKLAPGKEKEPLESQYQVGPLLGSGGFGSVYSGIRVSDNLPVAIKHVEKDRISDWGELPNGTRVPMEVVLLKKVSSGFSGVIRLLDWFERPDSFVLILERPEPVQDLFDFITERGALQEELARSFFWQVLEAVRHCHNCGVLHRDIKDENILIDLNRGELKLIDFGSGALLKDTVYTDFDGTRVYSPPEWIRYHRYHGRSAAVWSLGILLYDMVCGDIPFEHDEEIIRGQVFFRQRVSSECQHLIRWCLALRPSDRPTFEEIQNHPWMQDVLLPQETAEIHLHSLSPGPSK

DCLK1 (human) = DCLK1 (human) (UniProt O15075); details: compound 10.0 µM
BMP2K (human) = BMP2K (human) (UniProt Q9NSY1); details: compound 10.0 µM
HIPK2 (human) = HIPK2 (human) (UniProt Q9H2X6); details: compound 10.0 µM
RPS6KA2 KD2 (human) = RPS6KA2 KD2 (human) (UniProt Q15349); details: compound 10.0 µM
Sequence of RPS6KA2 KD2 (human) (Q15349 whole entry, looked up): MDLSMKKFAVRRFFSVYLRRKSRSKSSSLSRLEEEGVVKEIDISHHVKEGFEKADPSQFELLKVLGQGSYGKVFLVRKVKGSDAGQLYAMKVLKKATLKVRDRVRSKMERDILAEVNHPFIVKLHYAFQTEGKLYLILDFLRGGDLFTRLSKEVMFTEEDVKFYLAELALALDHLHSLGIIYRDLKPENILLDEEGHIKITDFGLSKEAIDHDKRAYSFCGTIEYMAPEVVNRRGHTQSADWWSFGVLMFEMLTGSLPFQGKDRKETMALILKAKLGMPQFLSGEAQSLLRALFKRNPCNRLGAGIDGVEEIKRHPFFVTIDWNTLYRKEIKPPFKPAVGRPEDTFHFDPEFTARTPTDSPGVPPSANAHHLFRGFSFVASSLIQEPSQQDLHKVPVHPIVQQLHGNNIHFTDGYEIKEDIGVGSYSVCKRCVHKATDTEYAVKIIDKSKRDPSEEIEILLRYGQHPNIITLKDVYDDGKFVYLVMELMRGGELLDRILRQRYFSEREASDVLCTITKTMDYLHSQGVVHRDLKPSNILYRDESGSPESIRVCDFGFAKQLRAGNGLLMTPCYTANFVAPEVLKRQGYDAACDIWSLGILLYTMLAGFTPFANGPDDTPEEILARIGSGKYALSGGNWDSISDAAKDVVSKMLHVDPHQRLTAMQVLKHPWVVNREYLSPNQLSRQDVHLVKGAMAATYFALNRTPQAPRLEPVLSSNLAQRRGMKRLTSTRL

CDK8 (human) = CDK8 (human) (UniProt P49336); details: compound 10.0 µM
LTK (human) = LTK (human) (UniProt P29376); details: compound 10.0 µM
FGFR4 (human) = FGFR4 (human) (UniProt P22455); details: compound 10.0 µM
EPHB1 (human) = EPHB1 (human) (UniProt P54762); details: compound 10.0 µM
CSNK1G2 (human) = CSNK1G2 (human) (UniProt P78368); details: compound 10.0 µM
RIOK3 (human) = RIOK3 (human) (UniProt O14730); details: compound 10.0 µM
CHEK2 (human) = CHEK2 (human) (UniProt O96017); details: compound 10.0 µM
[4] = test system: PIK3CA (human), P42336 [H1047L]; details: compound 10.0 µM
KIT (human) = KIT (human) (UniProt P10721)
Sequence of KIT (human) (P10721 whole entry, looked up): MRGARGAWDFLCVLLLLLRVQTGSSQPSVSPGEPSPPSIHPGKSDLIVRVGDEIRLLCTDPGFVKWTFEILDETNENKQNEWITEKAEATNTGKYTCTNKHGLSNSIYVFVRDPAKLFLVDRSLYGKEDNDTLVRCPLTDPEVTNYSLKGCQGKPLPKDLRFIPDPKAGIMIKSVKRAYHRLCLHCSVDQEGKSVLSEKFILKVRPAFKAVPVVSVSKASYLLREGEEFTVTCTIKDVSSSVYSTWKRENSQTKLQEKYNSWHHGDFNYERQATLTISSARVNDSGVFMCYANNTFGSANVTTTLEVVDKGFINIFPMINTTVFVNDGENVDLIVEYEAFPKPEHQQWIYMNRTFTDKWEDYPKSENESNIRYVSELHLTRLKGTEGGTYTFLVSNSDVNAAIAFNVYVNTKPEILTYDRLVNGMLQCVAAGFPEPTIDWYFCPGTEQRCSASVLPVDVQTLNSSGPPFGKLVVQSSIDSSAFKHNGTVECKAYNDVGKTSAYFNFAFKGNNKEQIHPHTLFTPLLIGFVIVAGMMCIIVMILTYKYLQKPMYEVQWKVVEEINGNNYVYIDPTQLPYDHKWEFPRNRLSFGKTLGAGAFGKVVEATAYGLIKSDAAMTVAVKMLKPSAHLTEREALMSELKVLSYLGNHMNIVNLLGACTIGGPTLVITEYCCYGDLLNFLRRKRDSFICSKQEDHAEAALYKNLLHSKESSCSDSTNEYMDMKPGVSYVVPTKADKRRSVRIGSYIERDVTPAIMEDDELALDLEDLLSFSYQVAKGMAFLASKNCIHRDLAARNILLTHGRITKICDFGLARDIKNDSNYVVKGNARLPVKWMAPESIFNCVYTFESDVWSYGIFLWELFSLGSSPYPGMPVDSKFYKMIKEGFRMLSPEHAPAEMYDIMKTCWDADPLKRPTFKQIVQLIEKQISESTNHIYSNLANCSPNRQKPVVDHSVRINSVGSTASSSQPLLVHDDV

STK17B (human) = STK17B (human) (UniProt O94768); details: compound 10.0 µM
[5] = test system: KIT (human), P10721 [L576P]; details: compound 10.0 µM
Sequence of KIT (human), P10721 [L576P] (P10721 whole entry L576P, looked up): as the sequence (P10721 whole entry, looked up) above, with L576P counted along it

Sequence of MAP3K12 (human) (Q12852 whole entry, looked up): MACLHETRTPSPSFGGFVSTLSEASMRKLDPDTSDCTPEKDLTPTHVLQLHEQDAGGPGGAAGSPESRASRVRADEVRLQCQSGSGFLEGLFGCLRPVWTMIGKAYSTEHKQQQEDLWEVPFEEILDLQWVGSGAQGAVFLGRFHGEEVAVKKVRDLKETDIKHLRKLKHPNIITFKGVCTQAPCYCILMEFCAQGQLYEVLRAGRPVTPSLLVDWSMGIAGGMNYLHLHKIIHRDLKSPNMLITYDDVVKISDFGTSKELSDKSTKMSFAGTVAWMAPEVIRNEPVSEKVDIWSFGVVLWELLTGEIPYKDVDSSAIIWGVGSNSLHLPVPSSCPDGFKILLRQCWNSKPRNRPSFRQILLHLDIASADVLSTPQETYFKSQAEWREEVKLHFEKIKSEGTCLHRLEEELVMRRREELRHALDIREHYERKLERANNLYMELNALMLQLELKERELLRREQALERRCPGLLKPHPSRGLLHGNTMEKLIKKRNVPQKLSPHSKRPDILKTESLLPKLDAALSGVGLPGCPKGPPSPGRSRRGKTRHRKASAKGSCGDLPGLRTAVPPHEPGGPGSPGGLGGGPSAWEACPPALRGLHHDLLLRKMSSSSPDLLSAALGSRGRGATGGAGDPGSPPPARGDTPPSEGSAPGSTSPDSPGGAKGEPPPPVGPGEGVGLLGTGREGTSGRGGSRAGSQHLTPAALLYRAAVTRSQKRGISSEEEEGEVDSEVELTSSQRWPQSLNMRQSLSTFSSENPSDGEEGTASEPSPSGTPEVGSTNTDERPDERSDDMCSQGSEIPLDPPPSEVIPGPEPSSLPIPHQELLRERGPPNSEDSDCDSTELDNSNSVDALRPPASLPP

With `Cc1ccc(NC(=O)c2ccc(NC(=O)/C=C/CN(C)C)cc2)cc1Nc1nccc(-c2cccnc2)n1` the kinase still bound, per cent of control (MAP3K12 (human)) was 94%, the kinase still bound, per cent of control (NEK9 (human)) was 100% and the kinase still bound, per cent of control (EPHB3 (human)) was 100%. For the same compound, the kinase still bound, per cent of control (PRKCH (human)) was 87%, the kinase still bound, per cent of control [1] was 45% and the kinase still bound, per cent of control (CDK5 (human)) was 100%. It also gave a kinase still bound, per cent of control (BMPR1B (human)) of 79%, a kinase still bound, per cent of control (PRKD1 (human)) of 100% and a kinase still bound, per cent of control (LATS1 (human)) of 100%. The kinase still bound, per cent of control (STK17A (human)) was 1.6%, the kinase still bound, per cent of control [2] was 100% and the kinase still bound, per cent of control (MARK2 (human)) was 78%. It also gave a kinase still bound, per cent of control (PAK1 (human)) of 89%, a kinase still bound, per cent of control (PRKD2 (human)) of 100% and a kinase still bound, per cent of control (MELK (human)) of 12%. For the same compound, the kinase still bound, per cent of control (TNIK (human)) was 43%, the kinase still bound, per cent of control (SBK1 (human)) was 77% and the pKd (MAPK10 (human)) was 7.00. The kinase still bound, per cent of control (MAPK10 (human); compound 10.0 µM) was 0.25%, the kinase still bound, per cent of control (NEK1 (human)) was 100% and the kinase still bound, per cent of control (PRKACA (human)) was 100%. The kinase still bound, per cent of control (CDK17 (human)) was 100%, the kinase still bound, per cent of control (STK3 (human)) was 100% and the kinase still bound, per cent of control [3] was 100%. For the same compound, the kinase still bound, per cent of control (CSNK1G3 (human)) was 71%, the kinase still bound, per cent of control (ACVR2B (human)) was 84% and the kinase still bound, per cent of control (TLK2 (human)) was 100%. It also gave a kinase still bound, per cent of control (PIM1 (human)) of 69%, a kinase still bound, per cent of control (DCLK1 (human)) of 84% and a kinase still bound, per cent of control (BMP2K (human)) of 88%. The kinase still bound, per cent of control (HIPK2 (human)) was 54%, the kinase still bound, per cent of control (RPS6KA2 KD2 (human)) was 86% and the kinase still bound, per cent of control (CDK8 (human)) was 93%. It also gave a kinase still bound, per cent of control (LTK (human)) of 100%, a kinase still bound, per cent of control (FGFR4 (human)) of 100% and a kinase still bound, per cent of control (EPHB1 (human)) of 100%. For the same compound, the kinase still bound, per cent of control (CSNK1G2 (human)) was 83%, the kinase still bound, per cent of control (RIOK3 (human)) was 47% and the kinase still bound, per cent of control (CHEK2 (human)) was 94%. The kinase still bound, per cent of control [4] was 89%, the pKd (KIT (human)) was 7.52 and the kinase still bound, per cent of control (KIT (human); compound 10.0 µM) was 0%. For the same compound, the kinase still bound, per cent of control (STK17B (human)) was 64% and the kinase still bound, per cent of control [5] was 0%.
